According to PubChem BioAssay (NCI):
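Five compound concentrations were applied to cells in 96-well plates for 48 hours; endpoints were derived by simple linear interpolation of the resulting dose-response curve. GI50 = concentration required for 50% inhibition of growth. TGI: concentration producing complete growth inhibition.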

Key:
Experiment in all cases: NCI-60 cell line screen, 48 h
UACC-257 melanoma = system: UACC-257 melanoma
COLO 205 colon = system: COLO 205 colon
SNB-19 CNS = system: SNB-19 CNS
MOLT-4 leukemia = system: MOLT-4 leukemia
SK-OV-3 ovarian = system: SK-OV-3 ovarian
SNB-75 CNS = system: SNB-75 CNS
MALME-3M melanoma = system: MALME-3M melanoma
PC-3 prostate = system: PC-3 prostate
EKVX NSCLC = system: EKVX NSCLC
HCC-2998 colon = system: HCC-2998 colon
M14 melanoma = system: M14 melanoma
SF-268 CNS = system: SF-268 CNS
KM12 colon = system: KM12 colon
HCT-15 colon = system: HCT-15 colon
NCI-H522 lung = system: NCI-H522 lung
NCI-H460 lung = system: NCI-H460 lung
A549 NSCLC = system: A549 NSCLC
SK-MEL-2 melanoma = system: SK-MEL-2 melanoma
HT29 colon = system: HT29 colon
786-0 renal = system: 786-0 renal
SK-MEL-28 melanoma = system: SK-MEL-28 melanoma
DU-145 prostate = system: DU-145 prostate
HS 578T breast = system: HS 578T breast
SF-539 CNS = system: SF-539 CNS
MCF7 breast = system: MCF7 breast
UACC-62 melanoma = system: UACC-62 melanoma
LOX IMVI melanoma = system: LOX IMVI melanoma
NCI-H226 lung = system: NCI-H226 lung
CCRF-CEM leukemia = system: CCRF-CEM leukemia
OVCAR-5 ovarian = system: OVCAR-5 ovarian
K-562 leukemia = system: K-562 leukemia
NCI/ADR-RES ovarian = system: NCI/ADR-RES ovarian
MDA-MB-231 breast = system: MDA-MB-231 breast
IGROV1 ovarian = system: IGROV1 ovarian
HL-60(TB) leukemia = system: HL-60(TB) leukemia
TK-10 renal = system: TK-10 renal
UO-31 renal = system: UO-31 renal
HOP-62 NSCLC = system: HOP-62 NSCLC
HOP-92 NSCLC = system: HOP-92 NSCLC
SK-MEL-5 melanoma = system: SK-MEL-5 melanoma
T-47D breast = system: T-47D breast
MDA-MB-435 = system: MDA-MB-435
RXF 393 renal = system: RXF 393 renal
SR leukemia = system: SR leukemia
CAKI-1 renal = system: CAKI-1 renal
OVCAR-8 ovarian = system: OVCAR-8 ovarian
ACHN renal = system: ACHN renal
A498 renal = system: A498 renal
SF-295 CNS = system: SF-295 CNS
SW-620 colon = system: SW-620 colon
OVCAR-4 ovarian = system: OVCAR-4 ovarian
HCT-116 colon = system: HCT-116 colon
NCI-H23 lung = system: NCI-H23 lung
SN12C renal = system: SN12C renal
BT-549 breast = system: BT-549 breast
U251 CNS = system: U251 CNS
RPMI-8226 leukemia = system: RPMI-8226 leukemia
OVCAR-3 ovarian = system: OVCAR-3 ovarian

Compound `COc1cc(/C=C2\C(=O)N(c3c(Cl)cccc3Cl)c3ccccc32)cc(OC)c1O` has a GI50 (UACC-257 melanoma) of 2.19 µM, a TGI (UACC-257 melanoma) of 19.6 µM and a GI50 (COLO 205 colon) of 5.94 µM. For the same compound, the TGI (COLO 205 colon) was 18.7 µM, the GI50 (SNB-19 CNS) was 0.742 µM and the TGI (SNB-19 CNS) was 19.3 µM. For the same compound, the GI50 (MOLT-4 leukemia) was 0.455 µM, the TGI (MOLT-4 leukemia) was 20.4 µM and the GI50 (SK-OV-3 ovarian) was 2.06 µM. It also gave a TGI (SK-OV-3 ovarian) of 18.9 µM, a GI50 (SNB-75 CNS) of 1.03 µM and a TGI (SNB-75 CNS) of 17 µM. It also gave a GI50 (MALME-3M melanoma) of 0.537 µM, a TGI (MALME-3M melanoma) of 16 µM and a GI50 (PC-3 prostate) of 1.44 µM. The TGI (PC-3 prostate) was 27.1 µM, the GI50 (EKVX NSCLC) was 5.23 µM and the TGI (EKVX NSCLC) was 25.1 µM. The GI50 (HCC-2998 colon) was 3.3 µM, the TGI (HCC-2998 colon) was 17.7 µM and the GI50 (M14 melanoma) was 1.03 µM. For the same compound, the TGI (M14 melanoma) was 15.6 µM, the GI50 (SF-268 CNS) was 0.413 µM and the TGI (SF-268 CNS) was 14.6 µM. The GI50 (KM12 colon) was 0.654 µM, the TGI (KM12 colon) was 2.69 µM and the GI50 (HCT-15 colon) was 0.0682 µM. The TGI (HCT-15 colon) was 11.2 µM, the GI50 (NCI-H522 lung) was 0.501 µM and the TGI (NCI-H522 lung) was 4.01 µM. For the same compound, the GI50 (NCI-H460 lung) was 0.342 µM, the TGI (NCI-H460 lung) was 4.58 µM and the GI50 (A549 NSCLC) was 1.24 µM. The TGI (A549 NSCLC) was 10.1 µM, the GI50 (SK-MEL-2 melanoma) was 1.23 µM and the TGI (SK-MEL-2 melanoma) was 15.4 µM. It also gave a GI50 (HT29 colon) of 2.17 µM, a TGI (HT29 colon) of 8.62 µM and a GI50 (786-0 renal) of 1.49 µM. It also gave a TGI (786-0 renal) of 17.4 µM, a GI50 (SK-MEL-28 melanoma) of 1.25 µM and a TGI (SK-MEL-28 melanoma) of 13.5 µM. It also gave a GI50 (DU-145 prostate) of 0.663 µM, a TGI (DU-145 prostate) of 6.13 µM and a GI50 (HS 578T breast) of 8.98 µM. For the same compound, the TGI (HS 578T breast) was greater than 27.8 µM, the GI50 (SF-539 CNS) was 0.531 µM and the TGI (SF-539 CNS) was 17.3 µM. For the same compound, the GI50 (MCF7 breast) was 0.524 µM, the TGI (MCF7 breast) was 9.26 µM and the GI50 (UACC-62 melanoma) was 0.594 µM. The TGI (UACC-62 melanoma) was 13.2 µM, the GI50 (LOX IMVI melanoma) was 0.303 µM and the TGI (LOX IMVI melanoma) was 4.65 µM. It also gave a GI50 (NCI-H226 lung) of 7.91 µM, a TGI (NCI-H226 lung) of 29 µM and a GI50 (CCRF-CEM leukemia) of 0.555 µM. For the same compound, the TGI (CCRF-CEM leukemia) was 19.9 µM, the GI50 (OVCAR-5 ovarian) was 8.04 µM and the TGI (OVCAR-5 ovarian) was 25 µM. The GI50 (K-562 leukemia) was 0.243 µM, the TGI (K-562 leukemia) was greater than 66.6 µM and the GI50 (NCI/ADR-RES ovarian) was 0.793 µM. The TGI (NCI/ADR-RES ovarian) was 13.5 µM, the GI50 (MDA-MB-231 breast) was 2.56 µM and the TGI (MDA-MB-231 breast) was 31.5 µM. It also gave a GI50 (IGROV1 ovarian) of 1.01 µM, a TGI (IGROV1 ovarian) of 15 µM and a GI50 (HL-60(TB) leukemia) of 1.01 µM. The TGI (HL-60(TB) leukemia) was 8.74 µM, the GI50 (TK-10 renal) was 1.21 µM and the TGI (TK-10 renal) was 15.6 µM. The GI50 (UO-31 renal) was 0.769 µM, the TGI (UO-31 renal) was 12.3 µM and the GI50 (HOP-62 NSCLC) was 1.23 µM. It also gave a TGI (HOP-62 NSCLC) of 20.3 µM, a GI50 (HOP-92 NSCLC) of 1.97 µM and a TGI (HOP-92 NSCLC) of 11 µM. It also gave a GI50 (SK-MEL-5 melanoma) of 0.375 µM, a TGI (SK-MEL-5 melanoma) of 6.26 µM and a GI50 (T-47D breast) of 2.89 µM. For the same compound, the TGI (T-47D breast) was 17.8 µM, the GI50 (MDA-MB-435) was 0.626 µM and the TGI (MDA-MB-435) was 15.4 µM. For the same compound, the GI50 (RXF 393 renal) was 1.86 µM, the TGI (RXF 393 renal) was 11.6 µM and the GI50 (SR leukemia) was 0.0847 µM. The GI50 (CAKI-1 renal) was 0.455 µM, the TGI (CAKI-1 renal) was 19.1 µM and the GI50 (OVCAR-8 ovarian) was 0.442 µM. It also gave a TGI (OVCAR-8 ovarian) of 19.8 µM, a GI50 (ACHN renal) of 0.59 µM and a TGI (ACHN renal) of 14.2 µM. It also gave a GI50 (A498 renal) of 5.59 µM, a TGI (A498 renal) of 16.1 µM and a GI50 (SF-295 CNS) of 0.702 µM. For the same compound, the TGI (SF-295 CNS) was 16.7 µM, the GI50 (SW-620 colon) was 0.702 µM and the TGI (SW-620 colon) was 16.2 µM. The GI50 (OVCAR-4 ovarian) was 1.69 µM, the TGI (OVCAR-4 ovarian) was 12.1 µM and the GI50 (HCT-116 colon) was 0.292 µM. For the same compound, the TGI (HCT-116 colon) was 4.83 µM, the GI50 (NCI-H23 lung) was 1.47 µM and the TGI (NCI-H23 lung) was 14.4 µM. The GI50 (SN12C renal) was 1.01 µM, the TGI (SN12C renal) was 17.6 µM and the GI50 (BT-549 breast) was 3.2 µM. It also gave a TGI (BT-549 breast) of 18.4 µM, a GI50 (U251 CNS) of 0.315 µM and a TGI (U251 CNS) of 13.5 µM. The GI50 (RPMI-8226 leukemia) was 0.718 µM, the TGI (RPMI-8226 leukemia) was 11.7 µM and the GI50 (OVCAR-3 ovarian) was 0.905 µM. For the same compound, the TGI (OVCAR-3 ovarian) was 7.24 µM.
